In series [1] the test system is gram-negative and gram-positive bacteria. Briefly: Antimicrobial activity compared with industry requirements. In kind it is cell-based. An excerpt:
In one example, the invention is the chemical compound diseleniummonochlorotriazine. Triazines are commonly used in the textile chemistry to synthesis the reactive dye and apply to fabrics as they form covalent bonds with cellulose. Incorporating selenium creates a reactive dye with antimicrobial properties. This same base structure can be used to make diselenocyanuric chloride, diselenocyanuric bromide, diselenocyanuric fluoride, or diselenocyanuric iodine. […] In one example, the antimicrobial agent has the structure: […]

For the next series, the system named is Staphylococcus aureus. Description: Bacterial killing (CFUs/sample) on cotton fabric treated with the organo-selenium compound, Gram-positive. In kind it is cell-based. The text has this: (§1) FIGS. 1A and 1B are graphs that compares the colony forming units (CFUs) per sample of bacteria on a fabric, showing total bacterial killing with the organoselenium compound, and no killing without the organoselenium compound. In this example, the organoselenium compound was applied to the fabric as a reactive dye.
(§2) The technology modifies triazines, a commonly used reactive dye within the textile chemistry for application to impart colors to fabrics, by incorporation of selenium to create a reactive dye with antimicrobial characteristics. Since the cotton manufacturing/processing industry currently relies on annealing of triazine to create colored fabrics, the presented technology can be incorporated into this sector with minimal changes in the production environment. The created compound, diseleniummonochlorotriazine, was evaluated in the laboratory by attaching the Se-based compound onto cotton fabrics with the following results: (1) Diseleniummonochlorotriazine killed 100% of Gram-positive bacteria (e.g., Staphylococcus aureus) that attempted to bind to the cotton, and (2) Diseleniummonochlorotriazine killed 90% of Gram-negative bacteria. (e.g., Pseudomonas aeruginosa) that attempted to bind to the cotton.
(§3) Example 1. […] The application technique for the organo-selenium compound can be used by, e.g., the textile industry, on an industrial scale to produce an anti-microbial fabric. […]

The next series has as its system Pseudomonas aeruginosa. Description: Bacterial killing (CFUs/sample) on cotton fabric treated with the organo-selenium compound, Gram-negative. Type of series: cell-based. To be noted: compound attached onto cotton fabric; e.g. Pseudomonas aeruginosa.
Text: as §1, §2, §3

Series [2] can be described thus: Binding to cotton and resistance to washing of the resulting fabric. Type of series: physicochemical. To be noted: attached to cotton yarns as reactive dye. The text has this: Briefly, the inventors developed organo-selenium compounds that can be attached to cotton yarns and is suitable for applications as reactive dye.

Consider three compounds from patent US20250237010A1, “Selenium Containing Antimicrobial Compound as a Reacitve Dye and Cross-Linking Treatment for Textile Applications” (Texas Tech University System, priority 2021, published 2025).

Where two headings read alike, the source gives them in different places.

As to `OCC(O)C[Se][Se]CC(O)CO` (stereo not shown), the “antimicrobial activity level relative to industry expectations/requirements” value in series [1] is recorded as “matches or exceed industrial requirements”.
`Clc1nc([SeH])nc([SeH])n1` [Diseleniummonochlorotriazine, diseleniummonochlorotriazine]: the “killed % of Gram-positive bacteria that attempted to bind to the cotton” value in the series with Staphylococcus aureus (compound attached onto cotton fabric, e.g. Staphylococcus aureus) amounted to 100%. For the same compound, the “killed % of Gram-negative bacteria that attempted to bind to the cotton” value in the series on Pseudomonas aeruginosa was determined as 90%. Besides, the “antimicrobial activity level relative to industry expectations/requirements” value in series [1] is reported as “matches industry expectations”; in series [1] (listed as diseleniummonochlorotriazine), “matches or exceed industrial requirements”.
Take diselenocyanuric chloride: in the series with Staphylococcus aureus (treated cotton fabric, FIG. 1A, applied as reactive dye), the “killing of Staphylococcus aureus on the fabric (CFUs per sample), in words” value was “totally kill”. In addition, the “binding to the cotton and resistance to washing” value in series [2] is “resistant to multiple washings”.
